Experimental data published in ChEMBL document CHEMBL4400555, “Structure-activity relationships of trichothecenes against COLO201 cells and Cochliobolus miyabeanus: The role of 12-epoxide and macrocyclic moieties” (Bioorg Med Chem Lett, 2019).
Calls of active or inactive are those of the source. No cut-off for these calls is given here.

Tests used:
COLO 201 = assay: Antiproliferative activity against human COLO201 cells after 24 hrs by WST-1 assay; type: functional, cell-based
Bipolaris oryzae [1] = assay: Antifungal activity against Cochliobolus miyabeanus 131004 assessed as zone of inhibition at 10 ug/disk after 4 days by paper disk method; type: functional; conditions: Bipolaris oryzae, 131004, 96 h; read-out: IZ
Bipolaris oryzae [2] = assay: Antifungal activity against Cochliobolus miyabeanus 131004 assessed as zone of inhibition at 50 ug/disk after 4 days by paper disk method; type: functional, organism-based
Bipolaris oryzae [3] = assay: Antifungal activity against Cochliobolus miyabeanus 131004 assessed as zone of inhibition at 100 ug/disk after 4 days by paper disk method; type: functional; conditions: Bipolaris oryzae, 131004, 96 h; read-out: IZ
Bipolaris oryzae [4] = assay: Antifungal activity against Cochliobolus miyabeanus 131004 assessed as zone of inhibition at 500 ug/disk after 4 days by paper disk method; type: functional; conditions: Bipolaris oryzae, 131004, 96 h; read-out: IZ

Row | SMILES | IC50 (COLO 201; colo 201) [µM] | zone of inhibition at 10 µg/disc (Bipolaris oryzae [1]) [mm] | IC50 (COLO 201; Homo sapiens, COLO 201, 24 h) [µM] | other results
1 | CC1=C[C@H]2O[C@@H]3C[C@H]4OC(=O)/C=C\C=C\[C@@H]([C@@H](C)O)OCC/C(C)=C/C(=O)OC[C@@]2(CC1)[C@]4(C)[C@]31CO1 | 47 |  |  | 
2 | CC1=C[C@H]2O[C@@H]3C[C@H]4OC(=O)/C=C\C=C\[C@@H]5O[C@H](C/C(C)=C/C(=O)OC[C@@]2(CC1)[C@]4(C)[C@]31CO1)O[C@H]5C | 82 |  |  | 
3 | CC(=O)O[C@H]1C[C@@]23COC(=O)/C=C(\C)C[C@@H]4O[C@@H](C)[C@H](/C=C/C=C\C(=O)O[C@@H]5C[C@@H](O[C@@H]2C=C1C)[C@@]1(CO1)[C@]53C)O4 | 46 |  |  | 
4 | C=C1[C@H]2CC[C@]1(C)[C@@]1(CO)[C@H](O)C(=O)C(C)=C[C@H]1O2 |  | 0 | > 700 | inhibition zone (IZ) (Bipolaris oryzae [2]): inactive
5 | C=C1[C@H]2C[C@H]3OC(=O)/C=C\C=C\[C@@H]4O[C@@H](O[C@H]4C)[C@H](O)/C(C)=C/C(=O)OC[C@@]4(CCC(C)=C[C@H]4O2)[C@]13C |  | 0 | 50 | zone of inhibition at 100 µg/disc (Bipolaris oryzae [3]): 0 mm; zone of inhibition at 500 µg/disc (Bipolaris oryzae [4]): 0 mm
6 | C=C1[C@H]2C[C@@H](OC(C)=O)[C@]1(C)[C@@]1(C)CCC(C)=C[C@H]1O2 |  | 0 | 420 | zone of inhibition at 100 µg/disc (Bipolaris oryzae [3]): 0 mm; zone of inhibition at 500 µg/disc (Bipolaris oryzae [4]): 0 mm
7 | CC1=C[C@H]2O[C@@H]3C[C@H]4OC(=O)/C=C\C=C\[C@@H]5O[C@H](C/C(C)=C/C(=O)OC[C@@]2(C[C@@H]1O)[C@]4(C)[C@]31CO1)O[C@H]5C | 51 |  |  | 
8 | CC1=C[C@H]2O[C@@H]3[C@H](O)C[C@](C)([C@@]2(CO)[C@H](O)C1=O)[C@]31CO1 [DEOXYNIVALENOL] | 86 |  |  | 
9 | C=C1[C@H]2C[C@H]3OC(=O)/C=C\C=C\[C@@H]([C@@H](C)O)OCC/C(C)=C/C(=O)OC[C@@]4(CCC(C)=C[C@H]4O2)[C@]13C |  | 0 | 51 | zone of inhibition at 100 µg/disc (Bipolaris oryzae [3]): 0 mm; zone of inhibition at 500 µg/disc (Bipolaris oryzae [4]): 0 mm
10 | CC(=O)O[C@@H]1C[C@H]2O[C@@H]3C=C(C)CC[C@]3(C)[C@]1(C)[C@]21CO1 | 123 |  |  | 
11 | CC1=C[C@H]2O[C@@H]3C[C@H]4OC(=O)/C=C\C=C\[C@@H]5O[C@@H](O[C@H]5C)[C@H](O)/C(C)=C/C(=O)OC[C@@]2(CC1)[C@]4(C)[C@]31CO1 | 42 |  |  | 
